Experimental data taken from patent US8906868B2, “Aminoglycoside derivatives” (Rempex Pharmaceuticals, Inc., priority 2010, dated 2014).

Columns and labels:
rats = test: Nephrotoxicity of test compounds in rats; conditions: once daily subcutaneous
various bacteria = test: MICs of 44 and 45, representative strains and strains expressing aminoglycoside modifying enzymes; assay type: cell-based; conditions: Tables 7 and 8, frequently
Description: (§1) To compare microbiological activity of the test compounds, minimum inhibitory concentrations (MIC.s) were determined. Antibiotic MICs were obtained using the broth microdilution method according to Clinical and Laboratory Standards Institute (CLSI) approved guidelines (Methods for dilution antimicrobial susceptibility tests for bacteria that grow aerobically; approved standard—7th ed. CLSI document M7-A7. Clinical and Laboratory Standards Institute, Wayne, Pa., incorporated herein by reference in its entirety). Antibiotics were dissolved as specified by CLSI (Performance standards for antimicrobial susceptibility testing; Seventeenth informational supplement. CLSI document M100-S17. Clinical and Laboratory Standards Institute, Wayne, Pa., incorporated herein by reference in its entirety), and were serially diluted 2-fold in cation adjusted Mueller Hinton Broth (CaMHB) at 2× concentration. Bacterial inoculums were prepared in CaMHB by suspension of a colony from an agar plate that was prepared the previous day to obtain a final concentration of 5×10^5CFU/ml. The plates were incubated for 18 hours at 35° C. […] MIC.s were determined by reading the turbidity of plate wells using a SpectraMax Plus384 plate reader (Molecular Devices, Sunnyvale, Calif., USA) at 600 nm and were confirmed by visual inspection.

[1] = tested on: Pseudomonas aeruginosa pa1061 aac(6′) (no efflux); test: MIC, strains expressing aminoglycoside modifying enzymes; assay type: cell-based; conditions: read-out: MIC Pseudomonas aeruginosa pa1061 aac(6′) (no efflux)
Description: as §1

Row | Structure (SMILES) | Histopathology Results After 7 days of Dosing (rats; 30 mg/kg/day) | Histopathology Results After 14 days of Dosing (rats; 30 mg/kg/day) | Histopathology Results After 7 days of Dosing (rats; 60 mg/kg/day) | Histopathology Results After 14 days of Dosing (rats; 60 mg/kg/day) | fold more active than 45 (MIC) (various bacteria) | MIC [1]
1 | CN[C@@H]1C(O)[C@@H](OC2C(O)C(O[C@H]3O[C@H](CNC[C@@H](O)CO)CCC3N)[C@@H](N)C[C@H]2NC(=O)[C@@H](O)CN)OCC1(C)O (stereo partly shown) [Compound 44] | No change | No change | No change | Minimal Hyaline-droplet | 2- to 4 fold | < 1 µg/mL
2 | CN[C@@H]1[C@@H](O)[C@@H](O[C@@H]2[C@@H](O)[C@H](O[C@H]3O[C@H](CNC[C@H](O)CO)CC[C@H]3N)[C@@H](N)C[C@H]2NC(=O)[C@@H](O)CN)OC[C@]1(C)O [Compound 45, (S)-3-amino-N-((1R,2S,3S,4R,5S)-5-amino-4-((2R,3R,6S)-3-amino-6-(((S)-2,3-dihydroxypropylamino)methyl)tetrahydro-2H-pyran-2-yloxy)-2-((2R,3R,4R,5R)-3,5-dihydroxy-5-methyl-4-(methylamino)tetrahydro-2H-pyran-2-yloxy)-3-hydroxycyclohexyl)-2-hydroxypropanamide] | – | – | – | – | – | < 1 µg/mL
